Measured values: the supplement of paper PMC9912026

System: HT29
Assay: pERK immunofluorescence normalised to no-drug reference (=1); higher = more ERK phosphorylation (less pathway inhibition)
Details: drug treatment time 24 h, EGF time 8 h
Method: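 A375 CRISPRa-EGFR (A375_aEGFR2) or HT29 cells were treated with two-drug dose combinations (vemurafenib, LY3009120, cobimetinib) for 24 h, then stimulated with EGF (100 ng/mL) or mock medium for 8 h. pERK (T202/Y204) was measured by immunofluorescence as the cytosolic population average, normalised to an untreated no-drug reference of the block (=1). Averages of 2 technical replicates. A375 in 5% FBS, HT29 in 10% FBS.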

CCCS(=O)(=O)Nc1ccc(F)c(C(=O)c2c[nH]c3ncc(-c4ccc(Cl)cc4)cc23)c1F [Vemurafenib] + O=C(c1ccc(F)c(F)c1Nc1ccc(I)cc1F)N1CC(O)([C@@H]2CCCCN2)C1 [Cobimetinib]
pERK immunofluorescence normalised
Details | drug B concentration 0 µM | drug B concentration 0.0001 µM | drug B concentration 0.0003162 µM | drug B concentration 0.001 µM | drug B concentration 0.00316228 µM | drug B concentration 0.01 µM | drug B concentration 0.0316228 µM | drug B concentration 0.1 µM | drug B concentration 0.316228 µM | drug B concentration 1 µM
drug A concentration 0 µM, EGF 0 ng/mL | – | 1.1 | 0.976 | 0.886 | 0.53 | 0.231 | 0.148 | 0.115 | 0.102 | 0.0988
drug A concentration 0 µM, EGF 100 ng/mL | – | 1.01 | 0.982 | 0.979 | 0.936 | 0.829 | 0.673 | 0.483 | 0.218 | 0.117
drug A concentration 0.000316 µM, EGF 0 ng/mL | 1 | 1.07 | 1.06 | 0.85 | 0.482 | 0.233 | 0.136 | 0.102 | 0.0952 | 0.0916
drug A concentration 0.000316 µM, EGF 100 ng/mL | 1.1 | 1.09 | 1.13 | 1.03 | 1.03 | 0.928 | 0.82 | 0.539 | 0.227 | 0.111
drug A concentration 0.001 µM, EGF 0 ng/mL | 1.05 | 1.06 | 1.03 | 0.855 | 0.463 | 0.217 | 0.127 | 0.106 | 0.0917 | 0.0915
drug A concentration 0.001 µM, EGF 100 ng/mL | 1.05 | 1.11 | 1.14 | 1.08 | 1.02 | 0.873 | 0.751 | 0.499 | 0.213 | 0.108
drug A concentration 0.00316 µM, EGF 0 ng/mL | 1.07 | 1.06 | 1.02 | 0.836 | 0.463 | 0.225 | 0.132 | 0.0985 | 0.0922 | 0.0903
drug A concentration 0.00316 µM, EGF 100 ng/mL | 1.05 | 1.13 | 1.17 | 1.04 | 1.03 | 0.887 | 0.769 | 0.496 | 0.213 | 0.106
drug A concentration 0.01 µM, EGF 0 ng/mL | 0.924 | 0.922 | 0.868 | 0.73 | 0.416 | 0.201 | 0.124 | 0.0992 | 0.093 | 0.0898
drug A concentration 0.01 µM, EGF 100 ng/mL | 1.03 | 1.04 | 1.04 | 0.958 | 1 | 0.902 | 0.738 | 0.473 | 0.213 | 0.107
drug A concentration 0.0316 µM, EGF 0 ng/mL | 0.742 | 0.727 | 0.695 | 0.513 | 0.389 | 0.189 | 0.129 | 0.0998 | 0.0935 | 0.095
drug A concentration 0.0316 µM, EGF 100 ng/mL | 0.843 | 0.912 | 0.902 | 0.933 | 0.854 | 0.818 | 0.699 | 0.467 | 0.211 | 0.109
drug A concentration 0.1 µM, EGF 0 ng/mL | 0.43 | 0.429 | 0.451 | 0.339 | 0.213 | 0.148 | 0.124 | 0.109 | 0.101 | 0.1
drug A concentration 0.1 µM, EGF 100 ng/mL | 0.824 | 0.844 | 0.967 | 0.948 | 0.882 | 0.755 | 0.699 | 0.437 | 0.212 | 0.112
drug A concentration 0.316228 µM, EGF 0 ng/mL | 0.261 | 0.305 | 0.273 | 0.251 | 0.166 | 0.133 | 0.115 | 0.104 | 0.101 | 0.0973
drug A concentration 0.316228 µM, EGF 100 ng/mL | 0.765 | 0.827 | 0.843 | 0.882 | 0.815 | 0.767 | 0.626 | 0.458 | 0.206 | 0.109
drug A concentration 1 µM, EGF 0 ng/mL | 0.201 | 0.205 | 0.203 | 0.178 | 0.146 | 0.125 | 0.111 | 0.101 | 0.0945 | 0.0941
drug A concentration 1 µM, EGF 100 ng/mL | 0.754 | 0.764 | 0.815 | 0.808 | 0.746 | 0.713 | 0.606 | 0.363 | 0.177 | 0.104
drug A concentration 3.16 µM, EGF 0 ng/mL | 0.162 | 0.165 | 0.171 | 0.144 | 0.134 | 0.119 | 0.113 | 0.0971 | 0.0922 | 0.0932
drug A concentration 3.16 µM, EGF 100 ng/mL | 0.69 | 0.73 | 0.731 | 0.772 | 0.663 | 0.562 | 0.414 | 0.215 | 0.115 | 0.093
drug A concentration 10 µM, EGF 0 ng/mL | 0.187 | 0.177 | 0.202 | 0.185 | 0.158 | 0.133 | 0.106 | 0.091 | 0.0912 | 0.0919
drug A concentration 10 µM, EGF 100 ng/mL | 0.541 | 0.517 | 0.524 | 0.486 | 0.441 | 0.323 | 0.187 | 0.107 | 0.0914 | 0.09
